Measurements from patent US11459332B2, “Substituted 2-azabicyclo[3.1.0]hexanes as TRK kinases inhibitors” (FOCHON BIOSCIENCES, LTD., priority 2018, dated 2022).

Key:
Format in all cases: cell-based
KM12 cells = KM12 cells proliferation inhibition (MTS), mechanism-based TRK assay; details: Homo sapiens, 72 h
From the text: (§1) MTS testing kit was purchased from Promega (Madison, Wis., USA). The RPMI-1640, Fetal bovine serum and Penicillin-Streptomycin were purchased from Gibco (San Francisco, Calif., USA). Dimethyl sulfoxide (DMSO) and Puromycin were purchased from Sigma (St. Louis, Mo., USA). Mouse interleukin-3 (IL-3) was purchased from Cell signaling Technology (Boston, Mass., USA).
To investigate whether a compound is able to inhibit the activity of TRK in cells, a mechanism-based assay using KM12 cells was developed. In this assay, inhibition of TRK was detected by the inhibition of KM12 cells proliferation. KM12 cells were cultured in culture flasks to 40-80% confluence in RPMI-1640 plus 10% fetal bovine serum. Cells were collected and plated onto 96-well plates at 1000 cells/well. Plates were incubated at 37° C., with 5% CO2 for 4 h. Compounds were added to the plates, the final compound concentrations were […], 123.5, 41.2, 13.7, 4.6 and 1.5 nM. Place plates at 37° C., with 5% CO2 for KM12 cells 72 h. 20 μl MTS/100 μl medium mixture solution were added to each well and incubate the plates for exactly 2 h. Stop the reaction by adding 25 μl 10% SDS per well. Measure absorbance at 490 nm and 650 nm (reference wavelength). IC50 was calculated using GraphPad Prism 5.0.

TPM3-TRKA = molecular target: T1, TPM3-TRKA (Homo sapiens, UniProt P04629); test: Engineered Ba/F3 cell proliferation inhibition (MTS), TPM3-TRKA; details: Ba/F3-TPM3-TRKA cells, 72 h
T1 construct: TPM3 (fusion partner, N-terminal part); expressed in transfected cells; the other entry of the earlier key: TPM3 (P06753, Tropomyosin alpha-3 chain)
From the text: as §1
(§2) To investigate whether a compound is able to inhibit the activity of TRK fusion mutation in cells, a mechanism-based assay using engineered Ba/F3 cell lines stably overexpressing oncogenic rearrangement or gene mutation of TRK (TPM3-TRKA, TPM3-TRKA-G595R, AFAP1-TRKB, ETV6-TRKC and ETV6-TRKC-G623R) were developed. In this assay, inhibition of TRK fusion mutation was detected by the cell proliferation inhibition of engineered Ba/F3 cells. Engineered Ba/F3 cells were cultured in culture flasks to 40-80% confluence in RPMI-1640 supplemented with 10% fetal bovine serum, 2 ug/mL puromycin. Cells were collected and plated onto 96-well plates at desired cell density (Ba/F3-TPM3-TRKA: 3×10^4/mL, Ba/F3-TPM3-TRKA-G595R: 1×10^5/mL, Ba/F3-AFAP1-TRKB: 1×10^5/mL, Ba/F3-ETV6-TRKC: 3×10^4/mL, Ba/F3-ETV6-TRKC-G623R: 3×10^4/mL). Plates were incubated at 37° C., with 5% CO2 for 4 h. Compounds were then added to the plates with the final compound concentrations of 10000, 3333, 1111, […], 123, 41.2, 13.7, 4.6 and 1.5 nM. Plates were incubated at 37° C., with 5% CO2 for 72 h. A mixture of 20 μl MTS/100 μl medium were added to each well and the plates were incubated at 37° C., with 5% CO2 for exactly 2 h. The reaction was stopped by adding 25 μl of 10% SDS per well. The absorbance was measured at 490 nm and 650 nm (reference wavelength). IC50 was calculated using GraphPad Prism 5.0 software.

ETV6-TRKC = molecular target: T2, ETV6-TRKC (Homo sapiens, UniProt Q16288); test: Engineered Ba/F3 cell proliferation inhibition (MTS), ETV6-TRKC; details: Ba/F3-ETV6-TRKC cells, 72 h
T2 construct: ETV6 (fusion partner, N-terminal part); expressed in transfected cells; the other entry of the earlier key: ETV6 (P41212, Transcription factor ETV6)
From the text: as §1, §2

TPM3-TRKA-G595R = molecular target: T3, TPM3-TRKA-G595R (Homo sapiens, UniProt P04629, G595R); test: Engineered Ba/F3 cell proliferation inhibition (MTS), TPM3-TRKA-G595R; details: Ba/F3-TPM3-TRKA-G595R cells, 72 h
T3 construct: TPM3 (fusion partner, N-terminal part); expressed in transfected cells; the other entry of the earlier key: TPM3 (P06753, Tropomyosin alpha-3 chain)
From the text: as §1, §2

T2 sequence (Q16288 530-825 isoform Q16288-3 limits assumed): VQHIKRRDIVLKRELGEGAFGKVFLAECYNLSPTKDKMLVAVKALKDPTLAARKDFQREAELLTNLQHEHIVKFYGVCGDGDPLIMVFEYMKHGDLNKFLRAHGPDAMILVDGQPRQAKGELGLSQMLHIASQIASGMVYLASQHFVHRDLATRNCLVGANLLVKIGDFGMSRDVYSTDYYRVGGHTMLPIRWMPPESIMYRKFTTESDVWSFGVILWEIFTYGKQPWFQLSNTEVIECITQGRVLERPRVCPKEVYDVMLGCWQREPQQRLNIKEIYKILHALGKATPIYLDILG
T3 sequence (P04629 510-796 G595R limits assumed): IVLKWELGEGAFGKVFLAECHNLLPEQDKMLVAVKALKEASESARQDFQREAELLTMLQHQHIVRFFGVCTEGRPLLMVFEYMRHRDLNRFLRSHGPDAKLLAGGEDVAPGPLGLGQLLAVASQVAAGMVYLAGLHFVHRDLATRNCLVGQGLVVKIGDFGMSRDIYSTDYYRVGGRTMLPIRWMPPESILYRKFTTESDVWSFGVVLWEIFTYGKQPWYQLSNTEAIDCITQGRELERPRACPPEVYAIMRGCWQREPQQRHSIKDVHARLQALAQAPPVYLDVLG
T1 sequence (P04629 510-796 limits assumed): as the sequence (P04629 510-796 G595R limits assumed) above, with R86G counted along it

IC50 (TPM3-TRKA) | IC50 (ETV6-TRKC) | IC50 (TPM3-TRKA-G595R) | Structure (SMILES) | IC50 (KM12 cells)
2 nM | 1 nM |  | O=C(Nc1cnn2ccc(N3CC[C@H]4C[C@]43c3cc(F)ccc3F)nc12)c1ccc(F)cn1 [Example 19, N-(5-((1R,5S)-1-(2,5-difluorophenyl)-2-azabicyclo [3.1.0]hexan-2-yl)pyrazolo[1,5-a]pyrimidin-3-yl)-5-fluoropicolinamide] | 1 nM
2 nM | 1 nM |  | Cc1cccnc1C(=O)Nc1cnn2ccc(N3CC[C@H]4C[C@]43c3cc(F)ccc3F)nc12 [Example 17, N-(5-((1R,5S)-1-(2,5-difluorophenyl)-2-azabicyclo [3.1.0]hexan-2-yl)pyrazolo[1,5-a]pyrimidin-3-yl)-3-methylpicolinamide] | 1 nM
 | 2 nM |  | O=C(Nc1cnn2ccc(N3CC[C@H]4C[C@]43c3cc(F)ccc3F)nc12)N1CCC(F)C1 (stereo in doubt) [Example 10, (R)-N-(5-((1R,5S)-1-(2,5-difluorophenyl)-2-azabicyclo[3.1.0]hexan-2-yl)pyrazolo [1,5-a]pyrimidin-3-yl)-3-fluoropyrrolidine-1-carboxamide] | 23 nM
1 nM | 1 nM | 5 nM | Cc1cccc(C(=O)Nc2cnn3ccc(N4CC[C@H]5C[C@]54c4cc(F)ccc4F)nc23)n1 [Example 16, N-(5-((1R,5S)-1-(2,5-difluorophenyl)-2-azabicyclo [3.1.0]hexan-2-yl)pyrazolo[1,5-a]pyrimidin-3-yl)-6-methylpicolinamide] | 1 nM
 | 16 nM |  | O=C(Nc1cnn2ccc(N3CC[C@H]4C[C@]43c3cc(F)ccc3F)nc12)c1ccc(Cl)cn1 [Example 24, 5-chloro-N-(5-((1R,5S)-1-(2,5-difluorophenyl)-2-azabicyclo[3.1.0]hexan-2-yl)pyrazolo[1,5-a]pyrimidin-3-yl)picolinamide] | 38 nM
 |  |  | O=C(Nc1cnn2ccc(N3CC[C@H]4C[C@]43c3cc(F)ccc3F)nc12)N1CC[C@@H](F)C1 [Example 11, (R)-N-(5-((1R,5S)-1-(2,5-difluorophenyl)-2-azabicyclo[3.1.0]hexan-2-yl)pyrazolo [1,5-a]pyrimidin-3-yl)-3-fluoropyrrolidine-l-carboxamide] | 53 nM
6 nM |  | 40 nM | CC(C)c1nnc(-c2cnn3ccc(N4CC[C@H]5C[C@]54c4cc(F)ccc4F)nc23)o1 [Example 5, 2-(5-((1R,5S)-1-(2,5-difluorophenyl)-2-azabicyclo[3.1.0]hexan-2-yl)pyrazolo[1,5-a]pyrimidin-3-yl)-5-isopropyl-1,3,4-oxadiazole] | 9 nM
19 nM | 2 nM |  | O=C1c2ccccc2CN1c1cnn2ccc(N3CC[C@H]4C[C@]43c3cc(F)ccc3F)nc12 [Example 28, 2-(5-((1R,5S)-1-(2,5-difluorophenyl)-2-azabicyclo [3.1.0]hexan-2-yl)pyrazolo[1,5-a]pyrimidin-3-yl)isoindolin-1-one] | 
14 nM | 1 nM | 67 nM | Cc1cnc(C(=O)Nc2cnn3ccc(N4CC[C@H]5C[C@]54c4cc(F)ccc4F)nc23)nc1 [Example 20, N-(5-((1R,5S)-1-(2,5-difluorophenyl)-2-azabicyclo [3.1.0]hexan-2-yl)pyrazolo[1,5-a]pyrimidin-3-yl)-5-methylpyrimidine-2-carboxamide] | 6 nM
44 nM | 7 nM |  | O=C(Nc1cnn2ccc(N3CC[C@H]4C[C@]43c3cc(F)ccc3Cl)nc12)N1CC[C@H](O)C1 [Example 2, (S)—N-(5-((1R,5S)-1-(2-chloro-5-fluorophenyl)-2-azabicyclo[3.1.0]hexan-2-yl)pyrazolo[1,5-a]pyrimidin-3-yl)-3-hydroxypyrrolidine-1-carboxamide] | 42 nM
5 nM | 1 nM |  | O=C(Nc1cnc2ccc(N3CC[C@H]4C[C@]43c3cc(F)ccc3F)nn12)N1CC[C@H](O)C1 [Example 4, (S)—N-(6-((1R,5S)-1-(2,5-difluorophenyl)-2-azabicyclo[3.1.0]hexan-2-yl)imidazo[1,2-b]pyridazin-3-yl)-3-hydroxypyrrolidine-1-carboxamide] | 2 nM
47 nM | 17 nM |  | O=C(Nc1cnn2ccc(N3CC[C@H]4C[C@]43c3cc(F)ccc3Cl)nc12)N1CC[C@@H](O)C1 [Example 3, (R)—N-(5-((1R,5S)-1-(2-chloro-5-fluorophenyl)-2-azabicyclo[3.1.0]hexan-2-yl)pyrazolo[1,5-a]pyrimidin-3-yl)-3-hydroxypyrrolidine-1-carboxamide] | 36 nM
33 nM | 1 nM |  | Cc1ccc(C(=O)Nc2cnn3ccc(N4CC[C@H]5C[C@]54c4cc(F)ccc4F)nc23)nc1 [Example 18, N-(5-((1R,5S)-1-(2,5-difluorophenyl)-2-azabicyclo [3.1,0]hexan-2-yl)pyrazolo[1,5-a]pyrimidin-3-yl)-5-methylpicolinamide] | 2 nM
5 nM | 5 nM |  | O=C(Nc1cnc2ccc(N3CC[C@H]4C[C@]43c3cc(F)ccc3F)nn12)N1CC[C@@H](O)C1 [Example 8, (R)-N-(6-((1R,5S)-1-(2,5-difluorophenyl)-2-azabicyclo[3.1.0]hexan-2-yl)imidazo[1,2-b]pyridazin-3-yl)-3-hydroxypyrrolidine-1-carboxamide] | 25 nM
3 nM | 3 nM |  | O=C(Nc1cnn2ccc(N3CC[C@H]4C[C@]43c3cc(F)ccc3F)nc12)N1CC[C@@H](O)C1 [Example 7, (R)-N-(5-((1R,5S)-1-(2,5-difluorophenyl)-2-azabicyclo[3.1.0]hexan-2-yl)pyrazolo[1,5-a]pyrimidin-3-yl)-3-hydroxypyrrolidine-1-carboxamide] | 20 nM
10 nM | 1 nM |  | O=C(Nc1cnn2ccc(N3CC[C@H]4C[C@]43c3cc(F)ccc3F)nc12)c1ncc(F)cn1 [Example 21, N-(5-((1R,5S)-1-(2,5-difluorophenyl)-2-azabicyclo [3.1.0]hexan-2-yl)pyrazolo[1,5-a]pyrimidin-3-yl)-5-fluoropyrimidine-2-carboxamide] | 24 nM
 | 9 nM |  | O=C(Nc1cnn2ccc(N3CC[C@H]4C[C@]43c3cc(F)ccc3F)nc12)N1CCC(F)(F)C1 [Example 12, N-(5-((1R,5S)-1-(2,5-difluorophenyl)-2-azabicyclo [3.1.0]hexan-2-yl)pyrazolo[1,5-a]pyrimidin-3-yl)-3,3-difluoropyrrolidine-1-carboxamide] | 2 nM
 | 4 nM |  | CO[C@H]1CCN(C(=O)Nc2cnn3ccc(N4CC[C@H]5C[C@]54c4cc(F)ccc4F)nc23)C1 [Example 9, (S)-N-(5-((1R,5S)-1-(2,5-difluorophenyl)-2-azabicyclo[3.1.0]hexan-2-yl)pyrazolo [1,5-a]pyrimidin-3-yl)-3-methoxypyrrolidine-1-carboxamide] | 42 nM
1 nM | 1 nM | 18 nM | O=C(Nc1cnn2ccc(N3CC[C@H]4C[C@]43c3cc(F)ccc3F)nc12)c1ccccn1 [Example 15, N-(5-((1R,5S)-1-(2,5-difluorophenyl)-2-azabicyclo [3.1.0]hexan-2-yl)pyrazolo[1,5-a]pyrimidin-3-yl) picolinamide] | 1 nM
